# Measurements published in patent US12485078B2, “Personal dental care product for caries treatment” (Credentis AG, priority 2016, dated 2025).
# Legend:
# [1] = Penetration of P11-4 (200 ppm, spiked with 10 ppm ATTO647-P11-4, 25 mM TRIS) into artificial subsurface lesions, confocal microscopy; set-up: species or system human; key to presence of fluorescent P11-4 in lesion, 6 d / presence of fluorescent P11-4 in lesion, 1 min / presence of fluorescent P11-4 in lesion, 2 min / presence of fluorescent P11-4 in lesion, 5 min / presence of fluorescent P11-4 in lesion, 4 d: 1 = no or low presence; 4 = high presence of fluorescent P11-4; Average presence of P11-4: scale not given here; conditions: for presence of fluorescent P11-4 in lesion, 1 min: 1 min incubation; for presence of fluorescent P11-4 in lesion, 2 min: 2 min incubation; for presence of fluorescent P11-4 in lesion, 5 min: 5 min incubation; for presence of fluorescent P11-4 in lesion, 6 d: washing in H2O; for presence of fluorescent P11-4 in lesion, 4 d: washing in Remin. buffer
# Protocol: Creation of artificial lesions on extracted human molar teeth was performed as described by Lo et al. 2010 (J Dent. 38(4):352-359). To define the position of the demineralized subsurface area (i.e., artificial carious lesion or white spot), the tooth was covered with colourless nail varnish, leaving a window of approximately 4×4 mm. The tooth was placed in demineralization buffer (2.2 mM CaCl2, 2.2 mM NaH2PO4, 50 mM acetic acid; pH adjusted with 1 M KOH to 4.4) for 3 d at 37° C. To ensure that all pores are open, as in a typical active caries lesion, the resulting subsurface lesions were treated with 10 μL of 2% NaClO (incubation for 1 min), rinsed, and air-dried at room temperature.
# • A 200 ppm (i.e., 200 μg/ml) solution of P11-4 (SEQ ID NO: 2), spiked with 10 ppm ATTO647-P11-4 (fluorescence labelled P11-4 (SEQ ID NO: 6): Ac-QQRFEWEFEQQSGSGC-(ATTO647)-NH2), i.e., 1:20, in 25 mM TRIS buffer was prepared at different pH, in particular, at 8.4 or 8.5 or 6.3, 6.5 or 6.8) • As specified in the table below, tooth were optionally pretreated, e.g., by incubation in human saliva for one day (about 24 hours), optionally followed by 5 min sonication (258 hz with a sonic toothbrush, Sonicare Diamond Clean® (Philips)) or by immersion in 2% NaClO for 1 min. • Tooth were immersed in the P11-4 solution for a defined period of time, 1, 2 or 5 min, and then removed and washed in water for 10 min or in remineralization buffer (2 mM Ca(NO3), 1.2 mM KHPO4, and 60 mM Tris/HCl, pH adjusted to 7.4 with 1 M KOH) for 4 days and/or 6 days. • Confocal assessment after 1, 2 or 5 min incubation was carried out while the teeth were in P11-4 solution, and optionally, after washing in water or in remineralization buffer after 10 min or 4 or 6 days. c) Confocal Microscopy
# Samples were placed in a μ-slide I (ibidi, Martinsried) in dest. water and analyzed by a confocal laser microscope (Olympus IX81). The recorded stack of four 2-dimensional images each projected the lesion volume of 51.4 μm thickness, giving a total assessment depth of 205 μm (objective: UPLSAPO 20×/NA 0.75; helium-neon gas laser; excitation: 633 nm and emission: 668 nm). Images were analyzed by Olympus software (FluoView FV1000).
# [2] = pH at which the peptide starts to undergo self-assembly; format: physicochemical; conditions: in solution
# Text: As used herein, the pH at which the self-assembling peptide starts to undergo self-assembly refers to the pH below which a significant extent of self-assembly of the peptides in solution is observed, which means that at least about 25%, about 30%, about 35%, about 40%, about 45%, about 50%, about 55%, about 60%, about 65%, about 70%, about 75%, about 80%, about 85%, about 90%, about 95%, about 99% or even about 100% of the peptides found in the dental care product are assembled. In a preferred embodiment, at least about 25% of the peptides found in the dental care product are assembled below the pH at which the peptide starts to undergo self-assembly.
# Further, the skilled person is aware of numerous methods to determine the pH at which a peptide of the present invention will start self-assembly at a given ionic strength. Suitable methods are denoted e.g. in a publication by Aggeli et al. (2003, J Am Chem Soc, 125, 9619-9628).
# [3] = 200 ppm in a slightly basic buffer
# [4] = tooth 1, pH 8.4, no pretreatment
# [5] = tooth 2, pH 8.4, no pretreatment
# [6] = tooth 3, pH 6.3, saliva pre-incubation
# [7] = tooth 4, pH 6.3, no pretreatment
# [8] = tooth 5, pH 8.5, saliva pre-incubation
# [9] = tooth 10, pH 8.5, no pretreatment
# [10] = tooth 11, pH 8.5, saliva pre-incubation
# [11] = tooth 12, pH 6.5, no pretreatment
# [12] = tooth 13, pH 6.8, saliva pre-incubation
# [13] = tooth ZR1, pH 8.5, sonification pretreatment
# [14] = tooth ZR2, pH 8.5, saliva pre-incubation then NaClO
# [15] = tooth ZR3, pH 8.5, saliva pre-incubation then sonification
# [16] = tooth ZR4, pH 8.5, saliva pre-incubation
substance,measurement,setting,value
Ac-QQRFEWEFEQQSGSGC-(ATTO647)-NH2 (Ac-QQRFEWEFEQQSGSGC(ATTO647)-NH2) [fluorescent P11-4],diffusion of monomeric peptide into artificial carious lesions,[1]; [3],can diffuse into the artificial carious lesions and form a stable network there
same,peptide detected outside the lesions,[1]; [3],No significant amounts
same,effect of pre-incubation with human saliva (pellicle) on presence of fluorescent peptide on the tooth or in the lesions,"[1]; pH 8.5, 1, 2, or 5 min, teeth 11, 5 and ZR4, versus no pre-incubation",significantly lower presence
same,Average presence of P11-4,[1]; [4],2.7
same,"presence of fluorescent P11-4 in lesion, 1 min",[1]; [4],4
same,"presence of fluorescent P11-4 in lesion, 2 min",[1]; [4],2
same,"presence of fluorescent P11-4 in lesion, 5 min",[1]; [4],2
same,"presence of fluorescent P11-4 in lesion, 1 min",[1]; [5],1
same,"presence of fluorescent P11-4 in lesion, 2 min",[1]; [5],3
same,"presence of fluorescent P11-4 in lesion, 5 min",[1]; [5],3
same,Average presence of P11-4,"[1]; tooth 2, pH 8.4, no pretreatment, H2O wash",2.0
same,"presence of fluorescent P11-4 in lesion, 6 d",[1]; [5],1
same,"presence of fluorescent P11-4 in lesion, 1 min",[1]; [6],1
same,"presence of fluorescent P11-4 in lesion, 2 min",[1]; [6],1
same,"presence of fluorescent P11-4 in lesion, 5 min",[1]; [6],1
same,Average presence of P11-4,"[1]; tooth 3, pH 6.3, saliva pre-incubation, H2O wash",1.0
same,"presence of fluorescent P11-4 in lesion, 6 d",[1]; [6],1
same,"presence of fluorescent P11-4 in lesion, 1 min",[1]; [7],1
same,"presence of fluorescent P11-4 in lesion, 2 min",[1]; [7],1
same,"presence of fluorescent P11-4 in lesion, 5 min",[1]; [7],2
same,Average presence of P11-4,"[1]; tooth 4, pH 6.3, no pretreatment, H2O wash",1.3
same,"presence of fluorescent P11-4 in lesion, 6 d",[1]; [7],1
same,Average presence of P11-4,[1]; [8],1.3
same,"presence of fluorescent P11-4 in lesion, 1 min",[1]; [8],2
same,"presence of fluorescent P11-4 in lesion, 2 min",[1]; [8],1
same,"presence of fluorescent P11-4 in lesion, 5 min",[1]; [8],1
same,"presence of fluorescent P11-4 in lesion, 1 min",[1]; [9],1
same,"presence of fluorescent P11-4 in lesion, 2 min",[1]; [9],4
same,"presence of fluorescent P11-4 in lesion, 5 min",[1]; [9],4
same,Average presence of P11-4,"[1]; tooth 10, pH 8.5, no pretreatment, Remin. buffer wash",2.8
same,"presence of fluorescent P11-4 in lesion, 4 d",[1]; [9],2
same,"presence of fluorescent P11-4 in lesion, 1 min",[1]; [10],1
same,"presence of fluorescent P11-4 in lesion, 2 min",[1]; [10],1
same,"presence of fluorescent P11-4 in lesion, 5 min",[1]; [10],1
same,Average presence of P11-4,"[1]; tooth 11, pH 8.5, saliva pre-incubation, Remin. buffer wash",1.0
same,"presence of fluorescent P11-4 in lesion, 4 d",[1]; [10],1
same,"presence of fluorescent P11-4 in lesion, 1 min",[1]; [11],2
same,"presence of fluorescent P11-4 in lesion, 2 min",[1]; [11],3.5
same,"presence of fluorescent P11-4 in lesion, 5 min",[1]; [11],2
same,Average presence of P11-4,"[1]; tooth 12, pH 6.5, no pretreatment, Remin. buffer wash",2.1
same,"presence of fluorescent P11-4 in lesion, 4 d",[1]; [11],1
same,"presence of fluorescent P11-4 in lesion, 1 min",[1]; [12],1
same,"presence of fluorescent P11-4 in lesion, 2 min",[1]; [12],2
same,"presence of fluorescent P11-4 in lesion, 5 min",[1]; [12],2
same,Average presence of P11-4,"[1]; tooth 13, pH 6.8, saliva pre-incubation, Remin. buffer wash",1.5
same,"presence of fluorescent P11-4 in lesion, 4 d",[1]; [12],1
same,Average presence of P11-4,[1]; [13],4.0
same,"presence of fluorescent P11-4 in lesion, 1 min",[1]; [13],4
same,"presence of fluorescent P11-4 in lesion, 2 min",[1]; [13],4
same,"presence of fluorescent P11-4 in lesion, 5 min",[1]; [13],4
same,Average presence of P11-4,[1]; [14],3.7
same,"presence of fluorescent P11-4 in lesion, 1 min",[1]; [14],3
same,"presence of fluorescent P11-4 in lesion, 2 min",[1]; [14],4
same,"presence of fluorescent P11-4 in lesion, 5 min",[1]; [14],4
same,Average presence of P11-4,[1]; [15],2.3
same,"presence of fluorescent P11-4 in lesion, 1 min",[1]; [15],1
same,"presence of fluorescent P11-4 in lesion, 2 min",[1]; [15],3
same,"presence of fluorescent P11-4 in lesion, 5 min",[1]; [15],3
same,Average presence of P11-4,[1]; [16],1.3
same,"presence of fluorescent P11-4 in lesion, 1 min",[1]; [16],1
same,"presence of fluorescent P11-4 in lesion, 2 min",[1]; [16],1
same,"presence of fluorescent P11-4 in lesion, 5 min",[1]; [16],2
CH3CO-QQRFEWEFEQQ-NH2 (Ac-QQRFEWEFEQQ-NH2) [terminally modified P11-4],pH at which the self-assembling peptides start to undergo self-assembly,[2],about 7.5
